Data as given in patent US20220259212A1, “INHIBITORS OF INDOLEAMINE 2,3-DIOXYGENASE AND/OR TRYPTOPHAN 2,3-DIOXYGENASE” (Idorsia Pharmaceuticals Ltd, priority 2019, published 2022).

Assays:
[1] = biological target: T1, Recombinant human TDO comprising amino acids 19-407 (Homo sapiens, UniProt P48775); assay: TDO2 enzymatic assay (NFK quantified by LCMS); type: biochemical; settings: 15 nM enzyme, 200 μM L-tryptophan, 30 min pre-incubation, pH7; mean if measured multiple times; read-out: hTDO activity (IC50 in nM)
T1 construct: human TDO comprising amino acids 19-407; hexahistidine (N); made in house; host or cells: E. coli
Experimental: 2) Testing Compounds for TDO Inhibitory Activity in a TDO2 Enzymatic Assay:
Recombinant human TDO comprising amino acids 19-407 with a N-terminal hexahistidine tag expressed in E. coli and purified to homogeneity is incubated at a final concentration of 15 nM in assay buffer consisting of 75 mM phosphate buffer at pH7 supplemented with 100 μM ascorbic acid, 50 U/ml Catalase, 0.01% BSA, and 0.01% Tween 20 (protocol modified from Seegers et al, JBS 2014). Example compounds are serially diluted in DMSO, further diluted in phosphate buffer, and added to the reaction mixture at final concentrations ranging from 10 μM to 0.5 nM. The final DMSO concentration is 0.6%. Following a pre-incubation of 30 minutes at RT, the reaction is started by the addition of L-tryptophan at a final concentration of 200 μM in assay buffer. After 30 minutes of incubation at RT, 3 μL of the reaction mixture are transferred to a 384 deep well plate containing 25 μL of deionized water. 100 μl of 200 nM L-Tryptophan-(indole-d5) in cold 100% methanol are added followed by a 10 minutes centrifugation at 3220×g at 4° C. An additional 75 μL of deionized water are then added followed by a 10 minutes centrifugation at 3220×g at 4° C. The product of the reaction N′-Formylkynurenine (NFK) is quantified by LCMS and normalized to the L-Tryptophan-(indole-d5) signal. Samples with 0.6% DMSO (0% effect) and a TDO/IDO inhibitor (100% effect) are used as control samples to set the parameters for the non-linear regression necessary for the determination of the half-maximal inhibitory concentration (IC50) for each compound. For each compound concentration the percentage of activity compared to 0% and 100% effect is calculated as average±STDEV (each concentration measured in duplicate). IC50 values and curves are generated with XLfit software (IDBS) using Dose-Response One Site model 203 (four parameter logistic curve model). The calculated IC50 values may fluctuate depending on the daily assay performance. Fluctuations of this kind are known to those skilled in the art. When compounds are measured multiple times, mean values are given.

IDO1 in SKOV3 cells = biological target: T2, IDO1 in SKOV3 cells (Homo sapiens, UniProt P14902); assay: Cell-based IDO inhibitory activity in IFNγ-stimulated SKOV3 cells (NFK + kynurenine by LCMS); settings: IFNγ 50 ng/ml, 200 uM L-tryptophan, 24 hours
T2 construct: SKOV3 cells (NCI, No. 0503405) which upregulate IDO1 after stimulation with IFNγ; host or cells: SKOV3 cells stimulated with IFNγ
Source text: 3) Testing Compounds for IDO/TDO Inhibitory Activity and Toxicity in Cell-Based Assays
SW48 cells (ATCC, CCL-231) are used to measure compounds for TDO inhibitory activity and are routinely maintained in DMEM high glucose/GlutaMAX™/pyruvate 90% (v/v), FCS 10% (v/v), Penicilin/streptomycin 1% (v/v). SKOV3 cells (NCI, No. 0503405) which upregulate IDO1 after stimulation with IFNγ are used to measure compounds for IDO inhibitory activity. SKOV3 cells are routinely maintained in RPMI 90% (v/v), FCS 10% (v/v), Penicilin/streptomycin 1% (v/v). SW48 or SKOV3 cells are seeded in 384 well plates at a density of 8000 cells in 45 ul per well or 4000 cells in 45 ul per well, respectively. Plates are incubated at 37° C./5% CO2 for 24 hours. On the next day, 10 ul compound in serial dilutions (tested concentration range 10 uM-40 nM) and 200 uM L-tryptophan are added (SKV03 receive in addition IFNγ at a final concentration of 50 ng/ml). After 24 hours of incubation at 37° C./5% CO2, 3 ul of the supernatant per well is transferred to 25 ul H2O per well in a 384 deep well plate and 25 ul of the supernatant per well is transferred to waste. The SKOV3 and SW48 cell plates with 25 ul supernatant per well remaining are used to measure viability (see below). The 384 deep well plate containing 3 ul supernatant and 25 ul H2O per well are further processed for LCMS: After the addition of 100 ul L-tryptophan-(indole-d5) (Sigma 615862) at 200 nM in methanol, the 384 deep well plates are centrifuged for 10 minutes at 3220×g at 4° C., 75 ul H2O is added per well and plates centrifuged again for 10 minutes at 3220×g at 4° C. N-formylkynurenine and kynurenine are quantified by LCMS, normalized to the internal standard L-tryptophan-(indole-d5) and the sum is calculated. Samples with 0.2% DMSO (0% effect) and a TDO/IDO inhibitor (100% effect) are used as control samples to set the parameters for the non-linear regression necessary for the determination of the IC50 for each compound. For each compound concentration the percentage of activity compared to 0% and 100% effect is calculated as average±STDEV (each concentration measured in duplicate). IC50 values and curves are generated with XLfit software (IDBS) using Dose-Response One Site model 203. The calculated IC50 values may fluctuate depending on the daily cellular assay performance. Fluctuations of this kind are known to those skilled in the art. When compounds are measured multiple times, mean values are given.

[2] = biological target: T3, Recombinant full-length human IDO1 (Homo sapiens, UniProt P14902); assay: IDO1 enzymatic assay (NFK quantified by LCMS); type: biochemical; settings: 2 nM enzyme, 5 μM L-tryptophan, 30 min pre-incubation, pH6.5; mean if measured multiple times; read-out: hIDO activity (IC50 in nM)
T3 construct: Recombinant full-length human IDO1 with a N-terminal hexahistidine tag; hexahistidine (N); made in house; host or cells: E. coli
Experimental: 1) Testing Compounds for IDO Inhibitory Activity in an IDO1 Enzymatic Assay:
Recombinant full-length human IDO1 with a N-terminal hexahistidine tag expressed in E. coli and purified to homogeneity is incubated at a final concentration of 2 nM in assay buffer consisting of 37.5 mM phosphate buffer at pH6.5 supplemented with 10 mM ascorbic acid, 0.45 μM methylene blue, 50 U/ml catalase, 0.01% BSA, and 0.01% Tween 20 (protocol modified from Seegers et al, JBS 2014). Example compounds are serially diluted in DMSO, further diluted in phosphate buffer, and added to the enzyme at final concentrations ranging from 10 μM to 0.5 nM. The final DMSO concentration is 0.6%. Following a pre-incubation of 30 minutes at RT, the reaction is started by the addition of L-tryptophan at a final concentration of 5 μM in assay buffer. After 30 minutes of incubation at RT, 3 μL of the 20 μl reaction mixture are transferred to a 384 deep well plate containing 25 μL of deionized water. 100 μl of 200 nM L-Tryptophan-(indole-d5) in cold 100% methanol are added followed by a 10 minutes centrifugation at 3220×g at 4° C. An additional 75 μL of deionized water are then added followed by a 10 minutes centrifugation at 3220×g at 4° C. The product of the reaction N′-Formylkynurenine (NFK) is quantified by LCMS and normalized to the L-Tryptophan-(indole-d5) signal. Samples with 0.6% DMSO (0% effect) and a TDO/IDO inhibitor (100% effect) are used as control samples to set the parameters for the non-linear regression necessary for the determination of the half-maximal inhibitory concentration (IC50) for each compound. For each compound concentration the percentage of activity compared to 0% and 100% effect is calculated as average±STDEV (each concentration measured in duplicate). IC50 values and curves are generated with XLfit software (IDBS) using Dose-Response One Site model 203 (four parameter logistic curve model). The calculated IC50 values may fluctuate depending on the daily assay performance. Fluctuations of this kind are known to those skilled in the art. When compounds are measured multiple times, mean values are given.

T3 sequence (P14902 whole entry): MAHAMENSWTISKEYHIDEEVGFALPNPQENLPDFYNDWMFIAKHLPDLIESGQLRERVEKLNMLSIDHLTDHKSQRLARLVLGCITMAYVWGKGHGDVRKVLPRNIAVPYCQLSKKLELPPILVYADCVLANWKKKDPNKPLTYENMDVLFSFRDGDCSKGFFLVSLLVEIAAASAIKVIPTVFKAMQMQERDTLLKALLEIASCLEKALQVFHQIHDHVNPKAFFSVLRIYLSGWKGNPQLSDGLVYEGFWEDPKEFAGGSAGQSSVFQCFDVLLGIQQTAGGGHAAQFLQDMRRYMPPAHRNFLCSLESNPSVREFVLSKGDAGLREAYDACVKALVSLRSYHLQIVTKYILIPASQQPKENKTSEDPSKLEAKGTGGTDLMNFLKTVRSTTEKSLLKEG
T2 sequence (P14902 whole entry): as above
T1 sequence (P48775 19-406 limits assumed): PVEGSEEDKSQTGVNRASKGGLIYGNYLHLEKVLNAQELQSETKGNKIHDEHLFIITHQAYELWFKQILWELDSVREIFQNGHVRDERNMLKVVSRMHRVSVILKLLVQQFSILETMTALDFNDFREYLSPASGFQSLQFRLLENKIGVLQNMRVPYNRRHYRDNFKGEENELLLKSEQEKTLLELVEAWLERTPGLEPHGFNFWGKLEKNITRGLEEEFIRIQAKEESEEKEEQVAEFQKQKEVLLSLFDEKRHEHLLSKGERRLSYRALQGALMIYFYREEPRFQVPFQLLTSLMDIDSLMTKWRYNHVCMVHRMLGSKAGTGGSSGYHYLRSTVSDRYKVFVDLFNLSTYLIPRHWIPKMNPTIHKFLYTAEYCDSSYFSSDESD

IC50 [1] [nM]	IC50 (IDO1 in SKOV3 cells) [nM]	IC50 [2] [nM]	SMILES
> 10200	11.6	13.7	OC(c1cn(-c2ccc(OCC3(F)COC3)cc2)nn1)c1c(C2CC2)ccc2cncn12 (racemic) [Example 19, rac-(6-Cyclopropyl-imidazo[1,5-a]pyridin-5-yl)-{1-[4-(3-fluoro-oxetan-3-ylmethoxy)-phenyl]-1H-[1,2,3]triazol-4-yl}-methanol]
5260	14.5	2.78	COc1ccc(-n2nnc(C(O)c3c(Cl)ccc4cncn34)c2C)cc1 (racemic) [Example 20, rac-(6-Chloro-imidazo[1,5-a]pyridin-5-yl)-[1-(4-methoxy-phenyl)-5-methyl-1H-[1,2,3]triazol-4-yl]-methanol]
> 10200	70.2	14.3	CCc1ncc2cncn2c1C(O)c1cn(-c2cc(F)c(OC)cc2F)nn1 (racemic) [Example 32, rac-[1-(2,5-Difluoro-4-methoxy-phenyl)-1H-[1,2,3]triazol-4-yl]-(6-ethyl-imidazo[1,5-a]pyrazin-5-yl)-methanol]
> 10200	14.5	2.97	CCc1ccc2cncn2c1C(O)c1cn(-c2ccc(OC)cc2)nn1 (racemic) [Example 34, rac-(6-Ethyl-imidazo[1,5-a]pyridin-5-yl)-[1-(4-methoxy-phenyl)-1H-[1,2,3]triazol-4-yl]-methanol]
> 10200	3.05	3.39	CCc1ccc2cncn2c1C(O)c1cn(-c2cc(F)c(OC)cc2F)nn1 (racemic) [Example 35, rac-[1-(2,5-Difluoro-4-methoxy-phenyl)-1H-[1,2,3]triazol-4-yl]-(6-ethyl-imidazo[1,5-a]pyridin-5-yl)-methanol]
6640	39	5.28	CCc1c(C(O)c2c(Cl)ccc3cncn23)nnn1-c1ccc(OC)cc1 (racemic) [Example 37, rac-(6-Chloro-imidazo[1,5-a]pyridin-5-yl)-[5-ethyl-1-(4-methoxy-phenyl)-1H-[1,2,3]triazol-4-yl]-methanol]
4710	86	5.43	Cc1c(C(O)c2c(Cl)ccc3cncn23)nnn1-c1ccccc1 (racemic) [Example 38, rac-(6-Chloro-imidazo[1,5-a]pyridin-5-yl)-(5-methyl-1-phenyl-1H-[1,2,3]triazol-4-yl)-methanol]
7940	6.94	5.26	COc1cc(F)c(-n2nnc(C(O)c3c(Cl)ccc4cncn34)c2C)cc1Cl (racemic) [Example 39, rac-[1-(5-Chloro-2-fluoro-4-methoxy-phenyl)-5-methyl-1H-[1,2,3]triazol-4-yl]-(6-chloro-imidazo[1,5-a]pyridin-5-yl)-methanol]
832	64.2	3.88	Cc1c(C(O)c2c(Cl)ccc3cncn23)nnn1-c1ccc(O)c(Cl)c1 (racemic) [Example 43, rac-2-Chloro-4-{4-[(6-chloro-imidazo[1,5-a]pyridin-5-yl)-hydroxy-methyl]-5-methyl-[1,2,3]triazol-1-yl}-phenol]
1460	29	2.29	Cc1c(C(O)c2c(Cl)ccc3cncn23)nnn1-c1ccc(O)c(F)c1 (racemic) [Example 48, rac-4-{4-[(6-Chloro-imidazo[1,5-a]pyridin-5-yl)-hydroxy-methyl]-5-methyl-[1,2,3]triazol-1-yl}-2-fluoro-phenol]
> 10200	2940	433	OC(c1ccn(-c2ccccc2)n1)c1c(Cl)ccc2cncn12 (racemic) [Ref2, rac-(6-Chloro-imidazo[1,5-a]pyridin-5-yl)-(1-phenyl-1H-pyrazol-3-yl)-methanol, reference compound]
8920	> 10000	161	OC(c1cnn(-c2ccccc2)n1)c1c(Cl)ccc2cncn12 (racemic) [Ref3, rac-(6-Chloro-imidazo[1,5-a]pyridin-5-yl)-(2-phenyl-2H-[1,2,3]triazol-4-yl)-methanol, reference compound]
8650	8830	275	OC(c1ccc(-c2ccccc2)s1)c1c(Cl)ccc2cncn12 (racemic) [Ref4, rac-(6-Chloro-imidazo[1,5-a]pyridin-5-yl)-(5-phenyl-thiophen-2-yl)-methanol, reference compound]
> 10200	4.84	2.12	Oc1ccc(-n2cc(C(O)c3c(C4CC4)ccc4cncn34)nn2)cc1Cl (single isomer, unassigned) [Example 7a]
9110	193	5.07	O[C@@H](c1cn(-c2ccccc2)nn1)c1c(Cl)ccc2cncn12 [Example 1a, (R)-(6-Chloro-imidazo[1,5-a]pyridin-5-yl)-(1-phenyl-1H-[1,2,3]triazol-4-yl)-methanol]
